From paper PMC7312527 (International Journal of Molecular Sciences, 2020) come the findings set out here.

For orientation: IC50 means the concentration needed to halve the response being measured. For orientation: LD50 means the dose at which mortality reaches 50%.

One series deals with BuChE from equine serum (Equus caballus, UniProt P81908). The series can be described thus: biochemical.
The subject of the next series is SH-SY5Y cells. The series is described as follows: Neuroprotection against rotenone/oligomycin A, co-incubation (MTT). To be noted: R/O mixture. Format: cell-based, human.
The target of series [1] is T1, AChE–BACE-1A protein pair (Homo sapiens, UniProt P22303+P56817).
T1 construct: pGBKT7-hAChE plasmid contained the cDNA fragment encoding for aa 52–577; N-terminal domain (aa 46–457) of BACE1A (GenBank: AF204943.1); host or cells: Saccharomyces cerevisiae Y2HGold (bait) mated with Y187 (prey)
The series can be described thus: Yeast three-hybrid (Y3H) test and β-galactosidase assay, AChE–BACE-1A. Format: cell-based. The protocol: The putative induction of interactions between hybrid ligands and five selected proteins was evaluated by the Y3H method. […]. The company maintained cDNA synthesis and cloning of inserts in a proper frame, such as the NdeI/BamHI fragments into the pGBKT7 (AChE) or pGADT7 (A4, BACE1A, MAO B, MAPT) vectors. Moreover, the yeast codon optimization was realized to facilitate the high expression of human recombinant proteins in Saccharomyces cerevisiae. The cDNA encoding for human AChE (GenBank M55040.1) was modified by removing the fragments for a signal peptide (aa 1–51) and the domain responsible for protein tetramerization (aa 578–611). […]
The putative protein–protein interactions between bait (AChE) and the four preys (A4, BACE1A, MAO B, and MAPT) were analyzed by the small-scale mating procedure (5mL) based on the Matchmaker Gold yeast two-hybrid system manual recommendations. […]
The yeast β-galactosidase assay kit (ThermoFisher Scientific, USA) was applied to quantitatively analyze the strength of the hybrid-ligand induced interactions.
To evaluate the β-galactosidase activity in the yeast culture, the yeast β-galactosidase microplate assay protocol (stopped) was used according to the manufacturer’s instructions. […] The optical densities at 660 nm and absorbance at 420 nm were evaluated by (Synergy H1, Biotek). In the quantitative β-galactosidase assay, the hybrid ligand 3c was used. […]

A short description of series [2]: In vivo acute oral toxicity (OECD 423). The conditions noted are these: female, Balb/c, mouse, in vivo, mice, read-out: LD50 cut-off values. As for the experimental part: (§1) Compound 3c was given orally (by gavage) in fixed doses, 5, 50, 300, or 2000 mg/kg body weight, at each stage of the study. Compound 3c was administered at an initial dose of 300 mg/kg, as its toxicity was unknown. According to the graph from the Organization for Economic Cooperation and Development (OCED) 423 guideline, six test stages might be performed. Three animals (female mice Balb/c) take part in each stage. The number of stages depends on the deaths of mice, which is the final test parameter. Results allowed for the classification of compound 3c into a Globally Harmonized Classification System for Chemical Substances and Mixtures (GHS) category. Moreover, the LD50 cut-off values were determined. The research was carried out on the basis of the agreement of the Local Ethical Committee for animal testing in Łódź No. 56/115 ŁB/2018. Compound 3c was administrated in a first dose of 300 mg/kg of body weight.
(§2) The testing protocol is as follows: After the initial dose of 300 mg/kg body weight, if 2–3 mice die, the compound is given at a lower dose (50 mg/kg). The lowest dose (5 mg/kg) is administrated if 2–3 animals die after the 50 mg/kg dose. If there are no deaths or only one mouse dies after administration of the 300 mg/kg dose, the compound is given again at the same dose (300 mg/kg). If there are no deaths again, the highest dose (2000 mg/kg) is given. After each dose, the mice are observed for 14 days. […]

The next series relates to female mice Balb/c. The series is described as follows: In vivo acute oral toxicity (OECD 423). As for the experimental part:
as §1, §2

T1 sequence (P22303 52-577): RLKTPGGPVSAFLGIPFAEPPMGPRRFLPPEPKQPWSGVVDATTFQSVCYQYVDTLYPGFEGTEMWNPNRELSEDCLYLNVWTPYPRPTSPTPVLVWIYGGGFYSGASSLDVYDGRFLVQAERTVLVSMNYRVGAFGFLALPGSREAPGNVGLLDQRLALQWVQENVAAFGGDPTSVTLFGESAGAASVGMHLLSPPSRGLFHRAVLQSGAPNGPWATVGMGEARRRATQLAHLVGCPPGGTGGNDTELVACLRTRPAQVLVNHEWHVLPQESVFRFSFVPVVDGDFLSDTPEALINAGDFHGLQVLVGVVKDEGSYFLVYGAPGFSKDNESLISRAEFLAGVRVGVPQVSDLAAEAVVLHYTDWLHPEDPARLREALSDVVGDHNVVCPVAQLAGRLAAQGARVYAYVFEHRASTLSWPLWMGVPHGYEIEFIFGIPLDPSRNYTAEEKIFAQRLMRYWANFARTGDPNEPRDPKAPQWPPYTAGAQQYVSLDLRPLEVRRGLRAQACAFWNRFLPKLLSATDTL
T1 sequence (P56817 46-457): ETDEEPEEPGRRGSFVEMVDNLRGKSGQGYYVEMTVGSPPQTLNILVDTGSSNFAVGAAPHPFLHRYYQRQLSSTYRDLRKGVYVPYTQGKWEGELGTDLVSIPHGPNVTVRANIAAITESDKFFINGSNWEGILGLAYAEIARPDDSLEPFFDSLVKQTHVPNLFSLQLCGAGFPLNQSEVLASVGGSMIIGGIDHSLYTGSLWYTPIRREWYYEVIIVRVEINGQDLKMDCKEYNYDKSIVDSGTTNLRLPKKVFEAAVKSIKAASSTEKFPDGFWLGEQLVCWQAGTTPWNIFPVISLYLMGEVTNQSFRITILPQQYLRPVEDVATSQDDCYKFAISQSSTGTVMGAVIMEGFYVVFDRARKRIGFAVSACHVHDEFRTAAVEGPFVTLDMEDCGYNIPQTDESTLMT
Chain of BuChE from equine serum (P81908 whole entry): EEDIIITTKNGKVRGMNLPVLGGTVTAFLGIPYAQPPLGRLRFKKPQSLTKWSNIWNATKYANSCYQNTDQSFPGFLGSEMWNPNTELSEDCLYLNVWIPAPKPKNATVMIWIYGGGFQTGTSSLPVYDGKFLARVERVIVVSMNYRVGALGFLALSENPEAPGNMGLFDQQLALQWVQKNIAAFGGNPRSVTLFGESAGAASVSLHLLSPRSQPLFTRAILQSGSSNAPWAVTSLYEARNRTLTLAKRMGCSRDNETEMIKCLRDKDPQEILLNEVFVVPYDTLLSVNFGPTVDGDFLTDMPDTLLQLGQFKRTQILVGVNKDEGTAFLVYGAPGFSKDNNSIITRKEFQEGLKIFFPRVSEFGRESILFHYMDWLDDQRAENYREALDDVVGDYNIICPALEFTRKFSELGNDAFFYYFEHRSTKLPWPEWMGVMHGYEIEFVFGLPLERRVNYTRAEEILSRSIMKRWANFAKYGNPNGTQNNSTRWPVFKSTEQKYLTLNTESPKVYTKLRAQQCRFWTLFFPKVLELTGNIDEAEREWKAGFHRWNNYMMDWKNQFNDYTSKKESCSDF

For `O=C(NCCCCNc1c2c(nc3ccccc13)CCCC2)c1cc(Cl)cc(Cl)c1` [Compound 3c], on BuChE from equine serum (IC50(AChE)/IC50(BuChE)), the “Selectivity for BuChE” value amounted to 0.206. In addition, the concentration for half-maximal inhibition (IC50) at BuChE from equine serum (means ± SD of three independent experiments, read-out: EqBuChE IC50 ± SD) came to 123 ± 11 nM. Further, the neuroprotection came to 29.10% with SH-SY5Y cells (0.0001 µM), 22.11% with SH-SY5Y cells (0.001 µM), 12.90% in the series on SH-SY5Y cells (0.01 µM) and 10.99% in the series on SH-SY5Y cells (0.1 µM). In addition, in series [1] (10 µM hybrid ligand), the “hybrid ligand-mediated interaction AChE–BACE-1A (colonies on DDO/X/A plates)” value is “interaction between AChE and BACE-1 is mediated by hybrid ligand 3c”. The “activity of β-galactosidase” value in series [1] (AChE–BACE-1A, 10 μM ligand, yeast grown 96 h) is given as 88.69 ± 2.57 units. Moreover, the LD50 at 14 days in series [2] amounted to 500 mg/kg. For the same compound, the “GHS (Globally Harmonized System) Category” value in the series on female mice Balb/c is 4. In addition, the deaths result in the series with female mice Balb/c (300 mg/kg, first and second stages) was “did not cause any deaths”; in the series on female mice Balb/c (2000 mg/kg, first stage), “all three mice died”.
